# Patent US11993513B2, “Process for manufacturing an aqueous hydrogen peroxide solution” (SOLVAY SA, priority 2018, dated 2024)
# Tests used:
# Assay type in all cases: physicochemical
# [1] = Density of polar solvents; conditions: ambient temperature
# [2] = Solubility tests of hydrogenated quinones (QH) in solvent mixtures, synthetic EQ/ETQ working solutions; conditions: comparison in words
# Protocol: The determination of the QH solubility was performed on synthetic EQ/ETQ working solutions. These quinones mixed in the tested solvents have been hydrogenated to a fixed level and cooled down successively to 3 different temperatures before the measurement (min. 3 hours to stabilize the system between each measurement). The conditions applied for these tests were:
# In this figure, Kb stands for the weight partition coefficient of hydrogen peroxide between the water and the working solution (mixture of quinones and organic solvents). It is calculated using the following formula: Kb=(g H2O2/kg aqueous phase)/(g H2O2/kg organic phase)
# The maximum solubility of a hydrogenated quinone (QH) in a solvent mixture is directly correlated with the productivity of the working solution. The higher is the QH solubility, the higher will be the theoretical quantity of hydrogen peroxide achievable per kg of WS (Productivity). These theoretical values, designated by the terms “Productivity (gH2O2/kg of WS) measured” in Table 1, were calculated as follows: […]
# 1 mole (240 g) ETQH (which actually is the QH in our Examples) per kg of WS will produce 1 mole (34 g) of H2O2 per kg of WS.
# [3] = Stability of the nitrile solvent during the AO process; conditions: nitrile function not protected
# From the text: As explained above, the main feature of the invention is the recourse to a mixture of a polar organic solvent and a non-polar organic solvent wherein the polar organic solvent is a substituted cyclohexane carbonitrile. […] The substituent(s) are preferably alkyl groups, preferably methyl and/or ethyl group(s). […] Another alternative would be to use at least one propyl, diethyl, methyl isopropyl, butyl, t-butyle . . . the latter being preferred.
Molecule,Density of polar solvents at amb T° [1],Productivity values compared with sextate or a linear nitrile like decanenitrile [2],Stability of the molecule during the AO process [3]
CCCCCCCCCC#N [Decanenitrile],0.83 kg/L,,
"CC1CCCC(C)(C)C1C#N (centres unmarked) [TMCH-CN, 2,2,6-trimethyl-cyclohexane-carbonitrile]",0.89 kg/L,much higher (almost the double in fact),
"N#CC1CCCCC1 [Unsubstituted cyclohexane carbonitrile, cyclohexane carbonitrile]",,,undergoes degradation
methyl cyclohexyl acetate [Sextate],0.94 kg/L,,
